Entries after “also recorded” stand apart in the source; their conditions may differ.
How the values were obtained:
[1] = system: mice exposed to sHA; assay: In vivo model of airway contraction (AHR) after sHA instillation, airway resistance to methacholine; details: 50 μl of 1-2 mg/ml by oropharyngeal aspiration, methacholine challenge 2 hours after sHA, compared to sHA with saline
Protocol: (§1) Measurements of respiratory mechanics were made by the forced oscillation technique. Response to aerosolized methacholine (0, 10 mg/ml, 25 mg/ml, and 100 mg/ml) was determined by resistance measurements every 30 seconds for 5 minutes, ensuring the parameters calculated had peaked. The resistance measurements were then averaged at each dose and graphed (RT, measured in cm H2O/ml/s) along with the initial baseline measurement.
(§2) In the following studies to evaluate the effect of heparosan, mice were exposed to one of several agents: sHA (50 μl of a 1 mg/ml sHA solution in PBS—sonicated Healon, AMO Inc., Santa Ana, Calif.); 1 ppm ozone (O3) for 4 hours; or inhaled OVA (sensitization with i.p. injection of 10 μg OVA (Sigma, St. Louis, Mo.), adsorbed to 2 mg of alum adjuvant (Pierce Biotechnology, Inc., Rockford, Ill.) diluted in saline on days 0 and 7, 60 minutes inhaled exposure to 1% OVA aerosol on days 14 and 15). Mice were phenotyped for AHR at typical time points for each of these exposures: 2 hours after sHA instillation; 24 hours after ozone exposure; and 48 hours after second OVA exposure. Thirty minutes prior to phenotyping, mice received appropriate treatment (saline, heparosan or heparin) by oropharyngeal aspiration. Mice received 50 μl of a 1-2 mg/ml solution of heparosan or heparin (or 50 μl of saline as a control). […]

[2] = system: mice sensitized to ovalbumin and exposed to inhaled ovalbumin; assay: Murine model of airway contraction in allergic asthma (ovalbumin), airway resistance; format: in vivo; details: given 48 hours after OVA exposure, 50 μl of 1-2 mg/ml by oropharyngeal aspiration, compared to saline placebo
Protocol: as §1, §2

[3] = system: mice exposed to ozone; assay: Murine model of airway contraction after ozone exposure, airway resistance; format: in vivo; details: 1 ppm ozone for 4 hours, given 24 hours after exposure, 50 μl of 1-2 mg/ml by oropharyngeal aspiration, compared to saline placebo
Protocol: as §1, §2

[4] = system: human airway smooth muscle cells (ASMC); assay: Gel contraction: human airway smooth muscle cells in 3-dimensional collagen-hyaluronan gels; format: cell-based
Protocol: The in vitro effect of heparosan on human airway smooth muscle cells (ASMC) was tested in 3-dimensional, collagen-hyaluronan gels. Collagen-only gels were used as controls. Human ASMC (6×10^5 cells/ml) in basal media were seeded into the gel solution and incubated up to 36 hours at 37° C. in 5% CO2. Gels were scanned at varying time intervals to monitor gel contraction. After 24 hours, the gels were fixed with 4% paraformaldehyde and stained with phalloidin and DAPI. In some experiments, the ROCK inhibitor Y-27632 was added to the gel. Change in gel area was measured by NIH Image J software.

[5] = system: mouse tracheal rings; assay: Tracheal ring assay, in vitro model of mouse airway smooth muscle cell contractility; format: cell-based; details: for effect on sHA-exaggerated contractile response of tracheal rings to carbachol: 1 mg/mL sHA+0.5 mg/mL oHA
Protocol: Airway smooth muscle reactivity was assessed in temperature-controlled (37° C.) organ baths containing Krebs-Henseleit buffer solution of the following composition: 118 mM NaCl, 4.7 mM KCl, 2.5 mM CaCl2, 1.2 mM MgSO4, 25 mM NaHCO3, 1.2 mM KH2PO4, and 11.1 mM glucose, continuously bubbled with 5% CO2 and 95% O2. Tracheal segments were mounted in organ baths between two metal hooks and connected to a K30 force displacement transducer under approximately 5-mN resting tension. Isometric contractile responses were recorded after dosing with carbachol (a bronchial constrictor) and isoproterenol (a bronchial dilator).

[6] = system: mice exposed to inhaled endotoxin (LPS); assay: Murine model of inflammatory asthma (inhaled endotoxin/LPS), airway resistance; format: in vivo; details: for airway resistance after inhaled endotoxin (LPS) exposure: LPS+oHA, 50 μl of 1.5 mg/ml oHA by oropharyngeal aspiration after exposure
Protocol: as §1
In the following studies to evaluate the effect of oHA, mice were exposed to sHA (50 μl of a 1 mg/ml sHA solution in PBS—sonicated Healon, AMO Inc., Santa Ana, Calif.) or inhaled endotoxin (5 μg/m^3) over 2.5 hours. Mice were phenotyped for AHR at typical time points for each of these exposures: 2 hours after sHA instillation; or 4 hours after endotoxin exposure. Thirty minutes prior to phenotyping, mice received appropriate treatment (saline, vehicle or oHA) by oropharyngeal aspiration. Mice were treated with 50 μl of 1.5 mg/ml oHA. Phenotyping was with invasive airway pressure measurements (FlexiVent™).

Substance	airway resistance after sHA exposure [1]	airway resistance in ovalbumin allergic asthma model [2]	airway resistance after ozone exposure [3]	effect on sHA-induced contraction of gel containing human ASMC ([4]; collagen-hyaluronan gel, change in gel area)	effect on sHA-exaggerated contractile response of tracheal rings to carbachol [5]	airway resistance after inhaled endotoxin (LPS) exposure [6]	airway contractility without LPS exposure ([6]; saline+oHA (oHA alone))	contraction of gel containing human ASMC ([4]; sHA alone, versus collagen-only control gels)	contractile response of tracheal rings to carbachol ([5]; 1 mg/mL sHA versus 0 mg/mL sHA)
heparin [reference compound]	increased the development of airway resistance	increased the development of airway resistance	had no effect on airway resistance beyond saline						
heparosan	decreased the development of airway resistance	led to decreased airway resistance compared to saline placebo treatment	led to decreased airway resistance compared to saline placebo treatment	inhibited this action, and was indistinguishable from control cells	ameliorates tracheal ring contractility	inhibits inflammatory AHR			
hyaluronan oligosaccharide [oHA]					inhibited this action	led to decreased airway resistance	had no effect on airway contractility		
short fragment hyaluronan [sHA, reference compound]								led to rapid contraction of a gel containing human ASMC; also recorded: led to rapid contraction of a gel containing haSMC	led to an exaggerated contractile response of mouse tracheal rings to the constrictor substance carbachol

From patent US9717752B2, “Uses of antagonists of hyaluronan signaling” (The United States of America, as represented by the …, priority 2012, dated 2017)
